Assay results reported in patent US8604047B2, “Method and composition for treating nodulocystic and conglobate acne vulgaris” (Elorac, Inc., priority 2010, dated 2013).

Experiments:
Type in all cases: in vivo, human
[1] = Topical cream applied to skin of patients with numerous acne papules, pustules, nodules and cysts; conditions: 5% dutasteride cream, once daily for 8 weeks, most patients
Experimental: A 5% dutasteride cream is prepared containing water, propylene glycol, bentonite, glycerol stearate, isopropyl myristate and cellulose gum, and applied once daily to the skin of patients with numerous acne papules, pustules, nodules and cysts for 8 weeks. After 8 weeks of such treatment, most patients will have at least a 20% decrease in the number of inflammatory acne lesions.

[2] = Daily oral or topical formulations of 5AR inhibitors in male patients with nodulocystic or conglobate acne
[3] = Oral administration to patients with conglobate acne (acne conglobata)
Experimental: Capsules containing 0.05 mg by weight of dutasteride are administered twice daily for 6 months to patients with conglobate acne.
A flavored oral solution incorporating a 0.75 mg by weight of dutasteride per every 5 ml of solution is administered to young patients with acne conglobata once daily for 24 weeks.
Tablets containing 0.1 mg by weight of finasteride are administered once daily for 12 weeks to patients with acne conglobata.

[4] = Oral administration to patients with nodulocystic acne; conditions: most patients
Experimental: Tablets containing 0.5 mg by weight of finasteride are administered once daily for 12 weeks to patients with nodulocystic acne.
Caplets containing 50 mg by weight of finasteride are administered once a week for 24 weeks to patients with severe nodulocystic acne.

[5] = Topical application by patients with nodulocystic acne
Source text: Patients with active nodulocystic acne apply 0.05% by weight finasteride prepared in an alcoholic gel containing 6% polyoxyethylene lauryl ether twice daily for 12 weeks.
An aqueous/alcohol solution containing 20% by weight finasteride is applied once daily by patients with nodulocystic acne.

C[C@]12C=CC(=O)N[C@@H]1CC[C@@H]1[C@@H]2CC[C@]2(C)[C@@H](C(=O)Nc3cc(C(F)(F)F)ccc3C(F)(F)F)CC[C@@H]12 [dutasteride]
decrease in the number of inflammatory acne lesions [1]: ≥ 20%
improvement of nodulocystic or conglobate acne [2]: dramatic improvement
resolution of inflammatory nodules, cysts and sinus tracts ([3]; capsules 0.05 mg dutasteride, oral, twice daily for 6 months): resolution of some of their inflammatory nodules, cysts and sinus tracts
resolution of conglobate acne at end of treatment ([3]; oral solution 0.75 mg dutasteride per 5 ml, once daily for 24 weeks, young patients, some patients): complete resolution of their conglobate acne

CC(C)(C)NC(=O)[C@H]1CC[C@H]2[C@@H]3CC[C@H]4NC(=O)C=C[C@]4(C)[C@H]3CC[C@]12C [finasteride]
improvement of nodulocystic or conglobate acne [2]: dramatic improvement
reduction in acne nodules and cysts ([4]; caplets 50 mg finasteride, once a week for 24 weeks, severe nodulocystic acne): marked reduction in acne nodules and cysts
activity of inflammatory acne lesions at end of treatment ([4]; tablets 0.5 mg finasteride, once daily for 12 weeks): significant decrease in the activity of their inflammatory acne lesions
nodules and cysts versus before starting treatment ([5]; 0.05% by weight finasteride alcoholic gel with 6% polyoxyethylene lauryl ether, twice daily for 12 weeks): fewer nodules and cysts
improvement in appearance after twelve weeks ([5]; aqueous/alcohol solution 20% by weight finasteride, once daily, twelve weeks, many patients): dramatic improvement in their appearance
improvement observed after two weeks ([5]; aqueous/alcohol solution 20% by weight finasteride, once daily, two weeks, most patients): some improvement
old acne lesions by end of treatment ([3]; tablets 0.1 mg finasteride, oral, once daily for 12 weeks): resolved with only minor scarring
new acne lesions by end of treatment ([3]; tablets 0.1 mg finasteride, oral, once daily for 12 weeks, most patients): very few new acne lesions
